These results are taken from paper PMC8998978, “Toward a Treatment of Cancer: Design and In Vitro/In Vivo Evaluation of Uncharged Pyrazoline Derivatives as a Series of Novel SHP2 Inhibitors” (International Journal of Molecular Sciences, 2022).

The subject of assay [1] is HCT116 cells. The assay can be described thus: Cell viability assay (SRB). It counts as cell-based, human. The text has this: (§1) Human colon cancer cell line HCT116, hepatoma cell lines HepG2 and BEL-7402, lung adenocarcinoma cell lines NCI-H1975 and 95-D, pancreatic cancer cell line Panc-1, breast cancer cell line MDA-MB-231, NSCLC cell line NCI-H1299, ovarian cancer cell line SK-OV-3, leukemia cell line K562, glioma cell line U87, colon epithelial cell line NCM460 and umbilical vein endothelial cell line HUVEC were purchased from the Institute of Biochemistry and Cell Biology, Chinese Academy of Sciences (Shanghai, China). HCT116 cell line was cultured in McCoy’s 5A medium (Hyclone, Logan, UT, USA). HepG2, 95-D, Panc-1, MDA-MB-231, BEL-7402, SK-OV-3, U87 and NCM460 cell lines were cultured in DMEM-High glucose medium (Hyclone, Logan, UT, USA). NCI-H1975, NCI-H1299 and HUVEC cell lines were cultured in RPMI 1640 medium (Hyclone, Logan, UT, USA). K562 cell line was cultured in IMDM medium (Hyclone, Logan, UT, USA). […]
(§2) The inhibition rate of cell viability was detected by 3-(4,5-dimethyl-2-thiazolyl)-2,5-diphenyl-2-H-tetrazolium bromide (MTT, Solarbio, Beijing, China) or Sulforhodamine B (SRB, Sigma-Aldrich, St. Louis, MO, USA) assay. […] The absorbance at 570 nm was measured in a multimode reader (Berthold Technologies, Germany). […] Finally, Tris–HCl solution was added, and the absorbance at 515 nm was detected in a multimode reader (Berthold Technologies, Germany).

For assay [2], the system named is K562 cells. The assay can be described thus: Cell viability assay (MTT). It is filed as cell-based. The conditions noted are these: Homo sapiens, K562, 72 h.
Excerpt: as §1, §2

For assay [3], the system named is human cancer cells. The assay can be described thus: Cell viability assay, panel of cancer cells. It is filed as cell-based. The conditions noted are these: 11 cancer cell lines, 72 h, read-out: IC50 values against cancer cells (range over the panel).
Excerpt: as §1, §2

A word on the IC50: it is the point on the concentration scale where inhibition reaches its midpoint. As for `CCOc1ccc(Oc2ccc(C3=NN(C4=NC(=O)CS4)C(c4cc(O)c(O)c(Br)c4Br)C3)cc2)cc1` (stereo not shown) [Compound 4o, 2-(5-(2,3-dibromo-4,5-dihydroxyphenyl)-3-(4-(4-ethoxyphenoxy)phenyl)-4,5-dihydro-1H-pyrazol-1-yl)thiazol-4(5H)-one], the “Growth inhibition of HCT116 cells” value in assay [1] (24, 48 and 72 h) is “time- and dose-dependent manner”. Moreover, the IC50 was 2.64 ± 0.17 µM in assay [1] (Homo sapiens, HCT-116, HCT116, 72 h); 9.6 ± 0.68 µM in assay [2]; 2.64 to 10.2 µM in assay [3].
